Test results: US8648111B2, “N1-2-thiophene-2-ylethyl-N2-substituted biguanide derivate, preparation method thereof, and pharmaceutical composition containing the same as active ingredients” (Hanall Biopharma Co., Ltd., priority 2008, dated 2014)
Where “and” joins values, the source holds several entries; their conditions need not be identical. Identical values can stand only once. Like-named read-outs stand apart in the source and are kept apart here.

Tests used:
Assay type in all cases: cell-based
HepG2 cells [1] = experiment: Measurement of cholesterol synthesis inhibitory ability (cholesterol content in cell lysates, Amplex red); settings: HepG2; for Cholesterol (100 uM) Aver.: 100 uM compound; for Cholesterol (100 uM) Aver. / Cholesterol (500 uM) Aver.: 24 hours, lower value = stronger cholesterol synthesis inhibition; for Cholesterol (500 uM) Aver.: 500 uM compound
Description: (§1) 2 mM metformin was used as a comparative compound for each of the plates (control group).
A cholesterol synthesis inhibitory ability, which is an important function of AMPK (AMP-activated protein kinase), was measured using HepG2 cells (ATCC: American Type Culture Collection) as a hepatic cell model according to the following procedure.
The hepatic cell model HepG2 cells were cultured in 1% serum-containing media (DMEM (Gibco), FBS (Gibco)) for 24 hours, and then treated with 100 μM or 500 μM of each of the compounds prepared in Examples for 24 hours. Then, the cells were disrupted with a lysis solution (0.1 M potassium phosphate, pH 7.4, 0.05 M NaCl, 5 mM cholic acid, 0.1% Triton X-100 (Sigma)). To the disrupted cells was added the same volume of a reaction solution (2 U/mL of a cholesterol oxidizing agent, 2 U/mL of a peroxidase, 0.2 U/mL of a cholesterol esterase, and 300 μM of Amplex red as a fluorescent factor (Molecular Probe)), which was allowed to react at 37° C. for 30 minutes. After completion of the reaction, the content of cholesterol formed in the cell lysates was measured at a wavelength of 560/590 nm (ex/em) using a fluorescence microscope.
A lower measurement value means an increased cholesterol synthesis inhibitory ability.

HepG2 cells [2] = experiment: Measurement of triglyceride (triglyceride content in cell lysates, Amplex red); settings: HepG2; for Triglyceride (100 uM) Aver.: 100 uM compound; for Triglyceride (100 uM) Aver. / Triglyceride (500 uM) Aver.: 24 hours, lower value = stronger triglyceride synthesis inhibition; for Triglyceride (500 uM) Aver.: 500 uM compound
Description: as §1
HepG2 cells (ATCC: American Type Culture Collection) were cultured in 1% serum-containing media (DMEM (Gibco), FBS (Gibco)) for 24 hours, and then treated with 100 μM or 500 μM of each of the compounds prepared in Examples for 24 hours. Then, the cells were disrupted with a lysis solution (0.1 M potassium phosphate, pH 7.4, 0.05 M NaCl, 5 mM cholic acid, 0.1% Triton X-100). […] After completion of the reaction, the content of triglyceride formed in the cell lysates was measured at a wavelength of 560/590 nm (ex/em) using a fluorescence microscope.
A lower measurement value means an increased triglyceride synthesis inhibitory ability.

HepG2 cells [3] = experiment: Measurement of gluconeogenesis inhibitory ability (14C-lactate, glucose formed in cells)
Description: as §1
HepG2 cells (ATCC: American Type Culture Collection) were cultured in 10% serum-containing high glucose media, transferred to no serum-containing low glucose media (DMEM (Gibco), FBS (Gibco)), and then treated with 100 μM of each of the compounds for 24 hours. Then, the cells were treated with 0.5 μCi ^14C-lactate (Amersham Pharmacia) and 10 mM L-lactate (Sigma), and cultured for 4 hours. After cultivation, the media were removed therefrom, and the cells were washed with PBS, treated with 0.1N NaOH and kept at room temperature for 1 hour. Then, the cells were neutralized with 1N HCl, and the content of glucose formed in the cells was measured with a liquid scintillation counter.
A lower measurement value means an increased gluconeogenesis inhibitory ability.

C2C12 cells = experiment: Measurement of glucose absorption ability (3H-deoxy-glucose uptake with insulin); settings: 100 uM compound with 1 μM insulin, 24 hours, differentiated C2C12; higher value = stronger; more than 200% counts as glucose absorption ability
Description: as §1
C2C12 cells (ATCC: American Type Culture Collection), a muscle cell model, were induced to differentiate into muscle cells in 2% bovine fetal serum-containing media (DMEM (Gibco), FBS (Gibco)) for 6 days. The C2C12 cells which differentiated into muscle cells were transferred to serum-free low glucose media (DMEM (Gibco), FBS (Gibco)), treated with 100 μM of each of the compounds, and then cultured with 1 μM of insulin for 24 hours. After cultivation, the cells were treated with 1 μCi ^3H-deoxy-glucose (Amersham Pharmacia) and 10 μM deoxy-glucose (Sigma) at 37° C. for 15 minutes. The media were removed therefrom, and the cells were washed twice with PBS (phosphate buffered saline). The washed cells were treated with 0.1N NaOH and neutralized with 1N HCl. The content of glucose absorbed into the cells was measured with a liquid scintillation counter.
A higher measurement value means a stronger ability to reduce insulin resistance.

[4] = 100 uM compound, 24 hours, HepG2, lower value = stronger gluconeogenesis inhibition
[5] = Metformin 2 mM, control group of each plate

Compound | Cholesterol (100 uM) Aver. (HepG2 cells [1]) | Cholesterol (500 uM) Aver. (HepG2 cells [1]) | Triglyceride (100 uM) Aver. (HepG2 cells [2]) | Triglyceride (500 uM) Aver. (HepG2 cells [2]) | Gluconeogenesis inhibition (100 uM) Aver. (HepG2 cells [3]; [4]) | Glucose absorption (100 uM) Aver. (C2C12 cells) [%] | Gluconeogenesis inhibition (100 uM) Aver. (HepG2 cells [3]; 100 uM compound, 24 hours, HepG2, lower value = stronger gluconeogenesis inhibition, 100 µM) | Gluconeogenesis inhibition (100 uM) Aver. (HepG2 cells [3]) | Cholesterol Aver. (HepG2 cells [1]; [5]) | Triglyceride Aver. (HepG2 cells [2]; [5]) | Gluconeogenesis inhibition Aver. (HepG2 cells [3]; Metformin 2 mM, control group of each plate, HepG2)
CCCCCN=C(NCCc1cccs1)NC(=N)N.Cl [Example 23, N1-2-(thiophen-2-ylethyl)-N2-pentyl biguanide hydrochloride] | 11.05 | 15.66 | 13.83 | 17.16 | 2.96 | 0.00 |  |  |  |  | 
CCCCCCN=C(NCCc1cccs1)NC(=N)N.Cl [Example 4, N1-2-(thiophen-2-ylethyl)-N2-hexyl biguanide hydrochloride] | 33.81 | 51.74 | 22.80 | 3.22 | 26.40 | 14.31 |  |  |  |  | 
CC(C)(C)CC(C)(C)N=C(NCCc1cccs1)NC(=N)N.Cl [Example 2, N1-2-(thiophen-2-ylethyl)-N2-t-octyl biguanide hydrochloride] | 63.63 | 55.38 | 29.21 | −1.92 | 68.28 | 10.46 |  |  |  |  | 
COc1ccc(N=C(NCCc2cccs2)NC(=N)N)cc1.Cl [Example 30, N1-2-(thiophen-2-ylethyl)-N2-(4-methoxyphenyl) biguanide hydrochloride (isomer)] | 73.64 | 26.15 | 91.91 | 48.42 |  | 148.42 | 105.18 |  |  |  | 
Cl.N=C(N)NC(=NCc1ccccc1)NCCc1cccs1 [Example 8, N1-2-(thiophen-2-ylethyl)-N2-t-benzyl biguanide hydrochloride] | 37.77 | 7.28 | 77.65 | 30.78 | 81.27 | 243.3 |  |  |  |  | 
N1-2-(5-ethylthiophen-2-ylethyl)-N2-methyl biguanide hydrochloride [Example 46] | 84.52 | 71.64 | 90.82 | 86.07 |  | 353.21 |  | 23.65 |  |  | 
CCCN=C(NCCc1cccs1)NC(=N)N.Cl [Example 13, N1-2-(thiophen-2-ylethyl)-N2-propyl biguanide hydrochloride] | 77.1 | 61.7 | 59.3 | 48.9 | 73.51 | 110.2 |  |  |  |  | 
Cl.N=C(N)NC(=Nc1ccc(-c2ccccc2)cc1)NCCc1cccs1 [Example 35, N1-2-(thiophen-2-ylethyl)-N2-(4-phenylphenyl) biguanide hydrochloride] | 28.27 | 30.49 | 18.94 | 14.92 | 109.62 | 35.00 |  |  |  |  | 
Cl.N=C(N)NC(=NC1CCCC1)NCCc1cccs1 [Example 21, N1-2-(thiophen-2-ylethyl)-N2-cyclopentyl biguanide hydrochloride] | 68.2 | 45.8 | 80.5 | 85.6 | 97.66 | 174.8 |  |  |  |  | 
CN(C)C(=N)N=C(N)N [Metformin, reference compound] |  |  |  |  |  |  |  |  | 65.31 and 74.50 and 85.91 and 70.69 and 73.31 | 81.14 and 69.58 and 73.61 and 70.05 and 74.57 | 39.79 and 59.14 and 53.09 and 78.33 and 64.50
